Among the test systems are UACC-257; OVCAR-4; HL-60; HOP-92; SK-MEL-28; Malme-3M; M19-MEL; NCI-H226; HCT-116; SN12C; IGROV-1; TK-10; SF-295; OVCAR-3; OVCAR-8; HT-29; OVCAR-5; NCI/ADR-RES; MCF7; Hs-578T.
Assay in all cases: NCI-60 cell line screen, 48 h

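Protocol summary: plate cells (96-well), add compound at 5 concentrations, incubate 48 h, interpolate endpoints linearly. GI50 = concentration required for 50% inhibition of growth.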 Active and inactive are the calls of the source. Rule as the data show it: active = GI50 up to about 1.1 µM and inactive = higher. Where only a bound is given, the exact number is not on record here.

As for `COc1cc(/C=C2\[C@H]3c4c(c(OC)c(C)c(OC)c4OC)C[C@@H](C(=O)N2Cc2ccccc2)N3C(=O)OCC(C)C)c(OC)c(C)c1OC`, the GI50 in the assay with UACC-257 is 16.6 µM (inactive); in the assay on OVCAR-4, > 100 µM (inactive); in the assay with HL-60, 7.46 µM (inactive); in the assay on HOP-92, 2.99 µM (inactive); in the assay on SK-MEL-28, > 100 µM (inactive); with Malme-3M, > 100 µM (inactive). Also, the GI50 with M19-MEL is > 100 µM (inactive); in the assay with NCI-H226, 1.16 µM (inactive); in the assay on HCT-116, 12.1 µM (inactive); in the assay with SN12C it was > 100 µM (inactive); in the assay with IGROV-1, > 77.8 µM (inactive); in the assay with TK-10, > 100 µM (inactive). The GI50 in the assay with SF-295 is > 100 µM (inactive); in the assay with OVCAR-3 it was > 41.4 µM (inactive); in the assay with OVCAR-8, > 100 µM (inactive); with HT-29, > 84.5 µM (inactive); in the assay on OVCAR-5, > 27.5 µM (inactive).

For the molecule `C[n+]1c(Cl)cn2c3nc4ccccc4nc3c([O-])c(C#N)c21`, the GI50 was > 100 µM (inactive) with UACC-257; > 59 µM (inactive) in the assay with OVCAR-4; > 100 µM (inactive) with HL-60; > 100 µM (inactive) with HOP-92; > 100 µM (inactive) in the assay on SK-MEL-28; > 100 µM (inactive) with Malme-3M. In addition, the GI50 is > 100 µM (inactive) in the assay on NCI/ADR-RES; < 0.01 µM (active) in the assay with M19-MEL; > 100 µM (inactive) with NCI-H226; > 100 µM (inactive) with HCT-116; > 100 µM (inactive) in the assay with SN12C; > 100 µM (inactive) in the assay with IGROV-1. In addition, the GI50 was > 10 µM (inactive) in the assay with TK-10; > 100 µM (inactive) in the assay on SF-295; > 100 µM (inactive) in the assay on OVCAR-3; > 100 µM (inactive) in the assay on OVCAR-8; > 100 µM (inactive) with HT-29; > 10 µM (inactive) in the assay with OVCAR-5. Further, the results for the GI50 with MCF7 and with Hs-578T were 18.1 µM (inactive) and > 100 µM (inactive), respectively.

Turning to `COC1=CC(=Nc2c(Cl)cc(Cl)cc2OC(=O)c2ccc([N+](=O)[O-])cc2)C=C(OC)C1=O`, the GI50 was 11.7 µM (inactive) in the assay with UACC-257; 10 µM (inactive) in the assay on OVCAR-4; 1.83 µM (inactive) with HL-60; 5.62 µM (inactive) in the assay on HOP-92; 16.7 µM (inactive) in the assay on SK-MEL-28; 15.5 µM (inactive) in the assay on Malme-3M. Also, the GI50 with M19-MEL is 3.41 µM (inactive); in the assay on NCI-H226, 15.2 µM (inactive); in the assay on HCT-116 it was 6.53 µM (inactive); in the assay on SN12C it was 11.8 µM (inactive); in the assay on IGROV-1, 14.5 µM (inactive); in the assay with TK-10, 22.8 µM (inactive). Also, the GI50 was 11.5 µM (inactive) in the assay on SF-295; 8.67 µM (inactive) with OVCAR-3; 7.35 µM (inactive) in the assay with OVCAR-8; 18.4 µM (inactive) with HT-29; 19.5 µM (inactive) in the assay on OVCAR-5.

Turning to `CC1=NOC(=O)/C1=C/c1ccccc1O`, the GI50 in the assay on UACC-257, in the assay on OVCAR-4, with HL-60, with HOP-92, with SK-MEL-28 and in the assay on Malme-3M was > 100 µM (inactive) throughout. The GI50 in the assay on M19-MEL, in the assay with NCI-H226, in the assay with HCT-116, in the assay on SN12C, in the assay on IGROV-1 and with TK-10 was > 100 µM (inactive) in each case. The GI50 in the assay with SF-295, in the assay on OVCAR-3, with OVCAR-8, with HT-29 and in the assay with OVCAR-5 was > 100 µM (inactive) each time.

`O=C(CC1(O)C(=O)Nc2c(Cl)cc(Cl)cc21)c1ccccc1` (centres undefined): the GI50 is 57 µM (inactive) in the assay with UACC-257; 39.2 µM (inactive) in the assay with OVCAR-4; 37 µM (inactive) with HL-60; > 100 µM (inactive) in the assay with HOP-92; > 100 µM (inactive) in the assay with SK-MEL-28; > 100 µM (inactive) in the assay on Malme-3M. For the same molecule, the GI50 is 31.6 µM (inactive) in the assay with M19-MEL; > 100 µM (inactive) in the assay with NCI-H226; 50.5 µM (inactive) in the assay on HCT-116; > 100 µM (inactive) in the assay with SN12C; > 100 µM (inactive) in the assay with IGROV-1; > 100 µM (inactive) in the assay with TK-10. In addition, the GI50 in the assay with SF-295 is 52.6 µM (inactive); in the assay on OVCAR-3 it was > 100 µM (inactive); in the assay with OVCAR-8, 71.8 µM (inactive); in the assay with HT-29, 31.6 µM (inactive); in the assay on OVCAR-5, > 100 µM (inactive).

Take `CC(C)=C1CCC(CN2CCOCC2)C1=O` (centres undefined): the GI50 in the assay with UACC-257 is 16.2 µM (inactive); with OVCAR-4 it was 8.18 µM (inactive); in the assay with HL-60 it was 4.12 µM (inactive); in the assay on HOP-92, 3.95 µM (inactive); in the assay on SK-MEL-28 it was 14.9 µM (inactive); with Malme-3M, 3.58 µM (inactive). For the same molecule, the GI50 in the assay on NCI/ADR-RES is 13.3 µM (inactive); in the assay on M19-MEL, 22.1 µM (inactive); with NCI-H226 it was 21.2 µM (inactive); in the assay with HCT-116 it was 4.43 µM (inactive); in the assay with SN12C, 8.59 µM (inactive); with IGROV-1 it was 20.3 µM (inactive). The GI50 in the assay on TK-10 is 6.21 µM (inactive); in the assay with SF-295, 98.4 µM (inactive); in the assay with OVCAR-3 it was 8.18 µM (inactive); in the assay on OVCAR-8, 7.55 µM (inactive); with HT-29, 8.65 µM (inactive); in the assay with OVCAR-5, 18.2 µM (inactive). For the same molecule, the GI50 was 4.14 µM (inactive) in the assay on MCF7 and 28.2 µM (inactive) with Hs-578T.

Consider `C=CCOC(=O)C1CCC(=O)N1C(=O)C(Cl)Cl` (centres undefined), for which the GI50 in the assay with UACC-257, with OVCAR-4, in the assay with HL-60, in the assay with HOP-92, in the assay on SK-MEL-28 and with Malme-3M was > 100 µM (inactive) each time. The GI50 in the assay with M19-MEL, with NCI-H226, with HCT-116, in the assay with SN12C, in the assay on IGROV-1 and in the assay on TK-10 was > 100 µM (inactive) each time. For the same molecule, the GI50 with SF-295, in the assay with OVCAR-3, with OVCAR-8, in the assay on HT-29 and in the assay on OVCAR-5 was > 100 µM (inactive) throughout.

For the molecule `COc1c(C)cc2c(C(C)C)c(O)c(O)c(C=O)c2c1O`, the GI50 in the assay with UACC-257 is 21.4 µM (inactive); with OVCAR-4, 17.2 µM (inactive); in the assay with HL-60 it was 25.9 µM (inactive); with HOP-92, 35.3 µM (inactive); in the assay with SK-MEL-28, 22.4 µM (inactive); in the assay with Malme-3M, 16.2 µM (inactive). Moreover, the GI50 in the assay with M19-MEL was 26.5 µM (inactive); with NCI-H226, 18.2 µM (inactive); in the assay with HCT-116 it was 20.7 µM (inactive); in the assay with SN12C, 27.7 µM (inactive); in the assay on IGROV-1 it was 30.5 µM (inactive); in the assay with TK-10 it was 37 µM (inactive). The GI50 in the assay with SF-295 is 28.8 µM (inactive); with OVCAR-3, 18.9 µM (inactive); in the assay on OVCAR-8, 27.4 µM (inactive); in the assay with HT-29, 13.3 µM (inactive); in the assay with OVCAR-5 it was 28.9 µM (inactive).

Consider `CCOc1ccccc1/N=C(/NC(=O)CC)SC`, for which the GI50 with UACC-257 was > 10 µM (inactive); in the assay on OVCAR-4 it was 85.1 µM (inactive); in the assay on HL-60, > 10 µM (inactive); with HOP-92, > 10 µM (inactive); in the assay on SK-MEL-28 it was > 10 µM (inactive); in the assay with Malme-3M it was 67.1 µM (inactive). Further, the GI50 was > 10 µM (inactive) in the assay with M19-MEL; > 10 µM (inactive) with NCI-H226; 81.1 µM (inactive) in the assay on HCT-116; 65.8 µM (inactive) with SN12C; > 10 µM (inactive) in the assay on IGROV-1; > 10 µM (inactive) in the assay with TK-10. The GI50 with SF-295 was > 10 µM (inactive); in the assay with OVCAR-3, > 10 µM (inactive); in the assay on OVCAR-8, 57 µM (inactive); with HT-29, > 10 µM (inactive); in the assay with OVCAR-5, > 10 µM (inactive).

The values above are taken from ChEMBL document CHEMBL1201862, “PubChem BioAssay data set” (2004).
